Measured values taken from paper PMC11906403, “Anti-lymphoma peptide is inspired by mapping a sequence of four amino acids of KRAI motif as nuclear localization signal of Crlz-1” (Molecular Therapy Oncology, 2025).
Where two headings read alike, the source gives them in different places. Where no end group is shown, it is not given here.

Tests used:
[1] = test system: Ramos, Daudi, K562 and THP-1 cells; experiment: Intrinsic cell membrane permeability of FAM-conjugated peptides added directly to culture media (confocal fluorescence microscopy); settings: for intrinsic cell membrane permeability: FAM fluorophore-labeled peptides added directly to Ramos, Daudi, K562 and THP-1 cells in culture media, cells washed with PBS-T, confocal fluorescence (Figure 6); for cell membrane permeability: N-terminally FAM-conjugated peptide added directly to culture media, confocal fluorescence (Figure 5A)
Method: (§2) For a 2-mL culture of cells in each well of a 6-well plate, 7 μL peptide solution in a concentration of 10 μg/μL in PBS was added directly to the culture media, which were RPMI-1640 supplemented with fetal bovine serum (10%), L-glutamine (1×), nonessential amino acids (1×), penicillin/streptomycin (1×), and 2-mercaptoethanol (50 μM), but not sodium pyruvate. The intrinsic cell membrane permeability of peptide with its N-terminally conjugated FAM fluorophore was checked by observing the peptide-treated cells in a confocal fluorescence microscope (Zeiss) after mounting the washed cells on a microscope slide with a cover glass. It was important that the treated cells be washed well, for example, five times with warm PBS-T (0.01% Tween 20) to remove any nonspecifically adsorbed FAM fluorophore-conjugated peptides. Various custom-ordered peptides with or without the conjugated FAM fluorophore to be used for this direct addition to the cells in culture media as well as for their intravenous injection to the xenografted nude mice as described below were prepared as mentioned above.

Ramos cells [2] = type: cell-based, human
From the text: (§1) Ramos (CRL-1596; American Type Culture Collection [ATCC]) is a human cell line of GC centroblast-derived BCL that was isolated from a Burkitt’s lymphoma patient, and Daudi (CCL-213; ATCC) is another human BCL cell line of Burkitt’s type. The control human cell lines of K562 (CCL-243; ATCC) and THP-1 (TIB-202; ATCC) wre originated from myelogenous and monocytic leukemia patients, respectively. NIH3T3 (CRL-1658; ATCC) is a mouse cell line of fibroblasts. […] Cells were counted on a hemocytometer (Neubauer; Marienfeld) after staining their aliquot with an equal volume of 0.4% trypan blue solution. All of the cell culture media and their supplements were purchased from Gibco (Thermo Fisher Scientific).
Stock solutions of various peptides, whose syntheses were custom ordered from GenScript via Koma Biotech in Korea, were first prepared by dissolving the lyophilized powder in PBS. Then, their aliquots were serially diluted with PBS to reach the final concentrations required for the experiments. […] To chase the effect of peptide transfection on the cellular proliferation, cells were counted daily on a hemocytometer by staining their aliquot with an equal volume of 0.4% trypan blue solution and finally harvested to analyze the effects of transfected peptide on various molecular events such as protein localization, transcription factor binding, gene expression, and rRNA production. […]

[3] = test system: Ramos, Daudi, K562 and THP-1 cells
Method: as §2

Ramos cells [4] = type: cell-based, human; settings: control peptides added directly to culture media without sodium pyruvate (Figure 6A)
From the text: as §1

Daudi cells = type: cell-based, human; settings: control peptides added directly to culture media without sodium pyruvate (Figure 6B)
From the text: as §1

Molecule | intrinsic cell membrane permeability [1] | cell membrane permeability ([1]; absence of sodium pyruvate) | intrinsic cell membrane permeability [3] | proliferation of Crlz-1+ Ramos cells inhibited (Ramos cells [4]) | proliferation of Crlz-1+ Daudi cells inhibited (Daudi cells) | other results
AKRAIT [AKRAIT] | intrinsic cell membrane permeabilities | intrinsically membrane permeable | – | – | – | death of transfected cells (Ramos cells [2]): not observed
AVGAGT [AVGAGT] | intrinsic cell membrane permeabilities | permeable through the membrane regardless of sodium pyruvate | – | – | – | cell membrane permeability ([1]; presence of sodium pyruvate): permeable through the membrane regardless of sodium pyruvate
ADEAIT [negatively charged control peptide] | – | – | no such intrinsic cell membrane permeability | not | not | –
O=C([O-])CCN1C(=O)/C(=C/c2ccc(-c3ccc([N+](=O)[O-])cc3)o2)SC1=S.[K+] [KYA1797K] | – | – | – | – | – | saturation concentration for cell growth inhibition (Ramos cells [2]; titration in Xfect transfection/treatment of Ramos cells, in the absence of any cell death (Figures 2D, 2E)): 5.5 µg/mL
TIARKA | – | – | intrinsic cell membrane permeabilities | not | not | –
